We go through 6 compounds from the supplement of paper PMC11061612.

The test system of test [1] is CTV-1 (T-Lymphoblastic Leukemia). As to the kind of experiment: Bliss excess, mean over the matrix (fraction); higher = more synergy. The gist of the method:
(§1)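 Cell lines grown in DMEM/F12 or RPMI with 10% FBS were plated in 1536-well plates and held 24 hours at 37°C, 5% CO2 before 72 hours of exposure to two-drug dose matrices, with DMSO typically at 0.2%. CellTiter-Glo 2.0 luminescence gave viability, which was converted to inhibition. Vehicle wells were set to 0 and blank wells to 1. Combination Emax is the second-highest inhibition in the matrix, and Bliss excess is the observed combination effect minus the expected EA + EB − EA·EB, where EA and EB are the single-agent effects.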

The test system of test [2] is G-292-Clone-A141B1 (Osteosarcoma). Described as above. In outline: as §1
Test [3] has as its system IHH-4 (Thyroid Gland Carcinoma). The test is described as above. In outline: as §1
The subject of test [4] is J82 (Bladder Carcinoma). Described as above. The gist of the method: as §1
Test [5] relates to JiyoyeP-2003 (Burkitt's Lymphoma). The test is described as above. The gist of the method:
as §1

Test [6] has as its system KARPAS-620 (Plasma Cell Myeloma). The test is described as above. The gist of the method: as §1
Test [7] deals with KATOIII (Gastric Carcinoma). Described as above. The gist of the method: as §1
The subject of test [8] is MFH-ino (Other Solid Carcinomas). The test is described as above. The gist of the method:
as §1

Test [9] concerns NCI-H1299 (Non-Small Cell Lung Carcinoma). The description is as above. The gist of the method:
as §1

The subject of a further test is RH-1 (Ewing's Sarcoma). The test is described as above. In outline: as §1
Test [10] deals with U-266 (Plasma Cell Myeloma). The test is described as above. In outline:
as §1

Test [11] concerns 697 (B-Lymphoblastic Leukemia). As to the kind of experiment: combination Emax (second highest fraction inhibited in the dose matrix, 72 h); higher = more inhibition; extreme values may be limits of the assay. In outline: as §1
The subject of a further test is CAL-78 (Chondrosarcoma). The description is as above. The gist of the method: as §1
Another test relates to ES7 (Ewing's Sarcoma). The test is described as above. The gist of the method:
as §1

In test [12] the test system is J82 (Bladder Carcinoma). Described as above. In outline: as §1
In test [13] the test system is LS-513 (Colorectal Carcinoma). Described as above. In outline: as §1
Test [14] deals with NCI-H1299 (Non-Small Cell Lung Carcinoma). The test is described as above. The gist of the method: as §1
The test system of test [15] is NCI-H1793 (Lung Adenocarcinoma). The test is described as above. The gist of the method:
as §1

Test [16] deals with SW1088 (Low Grade Glioma). Described as above. The gist of the method: as §1
The test system of test [17] is SW1990 (Pancreatic Carcinoma). Described as above. In outline:
as §1
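Throughout, for Bliss excess, mean over the matrix: after 72 h of two-drug dosing.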

Consider `CS(=O)(=O)CCNCc1ccc(-c2ccc3ncnc(Nc4ccc(OCc5cccc(F)c5)c(Cl)c4)c3c2)o1` [Lapatinib] + C[C@@H](Oc1cc(-c2cnn(C3CCNCC3)c2)cnc1N)c1c(Cl)ccc(F)c1Cl [Crizotinib] (first compound max 10 µM, 7x7, partner max 10 µM), for which the Bliss excess in [1] was 0.036; in test [2], -0.0506; in test [3], -0.0634; in the test with J82 (Bladder Carcinoma) [4] it was -0.0317; in [5], -0.0186; in [6], -0.0459. Moreover, the Bliss excess in test [7] was 0.0169; in [8], -0.0902; in test [9], -0.0677; with RH-1 (Ewing's Sarcoma), -0.0553; in [10], -0.0574. The “combination Emax” value in [11] was 0.996; in the test with CAL-78 (Chondrosarcoma) it was 0.897; in the test with ES7 (Ewing's Sarcoma) it was 0.927; in the test on J82 (Bladder Carcinoma) [12] it was 0.662; in test [13], 0.966; in [14], 0.492. The “combination Emax” value in test [15] stood at 0.793; in [16] it was 0.654; in test [17] it was 0.331.
On to `CN(CCO)CC[C@H](CSc1ccccc1)Nc1ccc(S(=O)(=O)NC(=O)c2ccc(N3CCC([C@@H](O)c4ccccc4-c4ccc(Cl)cc4)CC3)cc2)cc1S(=O)(=O)C(F)(F)F` [AZD4320] + Cn1cnc2c(F)c(Nc3ccc(Br)cc3Cl)c(C(=O)NOCCO)cc21 [Selumetinib] (first compound max 1 µM, 7x7, partner max 3 µM), for which the Bliss excess in test [1] is 0.0708; in [2], -0.0021; in test [3], 0.0185; in the test on J82 (Bladder Carcinoma) [4], -0.0144; in test [5], 0.0288; in test [6] it was 0.0613. Also, the Bliss excess in test [7] was -0.0086; in [8] it was -0.03; in [9], 0.0505; in the test with RH-1 (Ewing's Sarcoma), 0.0015; in test [10], 0.13. In addition, the “combination Emax” value in test [11] was 1; in the test on CAL-78 (Chondrosarcoma) it was 0.557; in the test on ES7 (Ewing's Sarcoma), 0.984; with J82 (Bladder Carcinoma) [12], 0.245; in test [13], 0.941; in test [14], 0.3. In addition, the entries for the “combination Emax” value in test [15], in test [16] and in test [17] were 0.248, 0.289 and 0.557, respectively.
Regarding `COc1cccc(OCCCN)c1-c1cc(Nc2cnc(C#N)cn2)n[nH]1` [Prexasertib] + CCc1c2c(nc3ccc(O)cc13)-c1cc3c(c(=O)n1C2)COC(=O)[C@]3(O)CC [SN-38] (first compound max 1 µM, 7x7, partner max 0.3 µM), the Bliss excess in test [1] is -0.0461; in test [2], 0.0081; in test [3], -0.0653; in the test with J82 (Bladder Carcinoma) [4], -0.0177; in [5], 0.0073; in test [6] it was 0.0396. For the same compound, the Bliss excess was -0.0168 in test [7]; -0.0321 in test [8]; -0.0161 in test [9]; -0.0177 in the test with RH-1 (Ewing's Sarcoma); -0.0412 in test [10]. Besides, the “combination Emax” value in test [11] is 1; with CAL-78 (Chondrosarcoma) it was 0.906; with ES7 (Ewing's Sarcoma) it was 1; in the test on J82 (Bladder Carcinoma) [12] it was 0.894; in test [13] it was 0.751; in test [14] it was 0.79. Besides, the “combination Emax” value in test [15] stood at 0.769; in [16] it was 0.849; in test [17], 0.741.
As for `CCc1c2c(nc3ccc(O)cc13)-c1cc3c(c(=O)n1C2)COC(=O)[C@]3(O)CC` [SN-38] + CN(C)CCCOc1ccc(-c2ccc3ncc4c(c3c2)n(C2CCOCC2)c(=O)n4C)cn1 [AZD0156] (first compound max 0.3 µM, 7x7, partner max 1 µM), the Bliss excess was 0.0414 in test [1]; -0.0508 in [2]; 0.0457 in [3]; -0.0299 in the test on J82 (Bladder Carcinoma) [4]; 0.0406 in test [5]; -0.0242 in [6]. Also, the Bliss excess is -0.0305 in [7]; -0.0032 in test [8]; 0.0495 in test [9]; 0.0845 in the test with RH-1 (Ewing's Sarcoma); -0.0099 in test [10]. For the same compound, the “combination Emax” value in test [11] turned out to be 1; with CAL-78 (Chondrosarcoma) it was 0.587; in the test on ES7 (Ewing's Sarcoma) it was 1; with J82 (Bladder Carcinoma) [12], 0.784; in test [13] it was 0.526; in test [14] it was 0.529. Besides, the “combination Emax” value came to 0.505 in [15], 0.54 in test [16] and 0.525 in test [17].
As to `CC1(C)CCC(CN2CCN(c3ccc(C(=O)NS(=O)(=O)c4ccc(NCC5CCOCC5)c([N+](=O)[O-])c4)c(Oc4cnc5[nH]ccc5c4)c3)CC2)=C(c2ccc(Cl)cc2)C1` [Venetoclax] + C=CCn1c(=O)c2cnc(Nc3ccc(N4CCN(C)CC4)cc3)nc2n1-c1cccc(C(C)(C)O)n1 [AZD1775] (first compound max 1 µM, partner max 1 µM), the Bliss excess in test [1] was -0.0327; in test [2], -0.0023; in [3], -0.0654; with J82 (Bladder Carcinoma) [4] it was -0.0832; in [5], -0.0263; in [6], 0.0191. The Bliss excess in test [7] was 0.0093; in test [8] it was -0.0222; in [9], 0.0038; with RH-1 (Ewing's Sarcoma), -0.0123; in test [10] it was 0.104. For the same compound, the “combination Emax” value was found to be 1 in test [11]; 0.51 in the test on CAL-78 (Chondrosarcoma); 0.888 with ES7 (Ewing's Sarcoma); 0.177 in the test with J82 (Bladder Carcinoma) [12]; 0.697 in test [13]; 0.641 in [14]. Besides, the “combination Emax” value in [15] stood at 0.481; in [16], 0.648; in test [17] it was 0.783.
For `CC1(C)CCC(CN2CCN(c3ccc(C(=O)NS(=O)(=O)c4ccc(NCC5CCOCC5)c([N+](=O)[O-])c4)c(Oc4cnc5[nH]ccc5c4)c3)CC2)=C(c2ccc(Cl)cc2)C1` [Venetoclax] + COc1cc(Nc2ncc3c(n2)-c2ccc(Cl)cc2C(c2c(F)cccc2OC)=NC3)ccc1C(=O)O [Alisertib] (first compound max 1 µM, 7x7, partner max 10 µM), the Bliss excess in [1] was -0.0095; in test [2], -0.0793; in test [3], -0.0216; with J82 (Bladder Carcinoma) [4], -0.0336; in test [5], -0.0161; in [6], 0.284. Moreover, the Bliss excess in test [7] was -0.0587; in test [8] it was -0.0729; in [9], 0.0391; with RH-1 (Ewing's Sarcoma) it was -0.0065; in test [10], 0.131. Besides, the “combination Emax” value in test [11] turned out to be 1; in the test with CAL-78 (Chondrosarcoma), 0.598; in the test on ES7 (Ewing's Sarcoma), 0.917; in the test on J82 (Bladder Carcinoma) [12], 0.351; in [13] it was 0.55; in test [14], 0.385. For the same compound, the “combination Emax” value in test [15] came to 0.612; in test [16] it was 0.679; in [17], 0.415.
